Experimental data: US6525017B1, “Using glutathiane to protect neurons from injury” (The Children's Medical Center Corporation, priority 1989, dated 2003)

How the values were obtained:
non-NMDA receptors = experiment: Whole-cell currents elicited by non-NMDA agonists in rat retinal ganglion cells; format: cell-based; details: 125 μM kainate, 60 μM AMPA, 30 μM quisqualate
Procedure: The third central neuronal preparation in which the effects of oxidation and reduction on NMDA responses were tested was the isolated rat retinal ganglion cell. Postnatal retinal ganglion cells were identified and cultured as described in Lipton et al., supra. Physiological solutions and experimental protocol were the same as described for cortical neurons (Example 2), except that TTX was excluded from the extracellular fluid, since whole-cell recordings were performed on neurons that were solitary and had no apparent connections to other cells and no spontaneous action potentials.
In the retinal ganglion cells, we further tested the effects of DTT and DTNB on responses elicited by glutamate analogs acting at non-NMDA receptors to confirm our previous observations in the chick retina, i.e., a lack of effect of reduction and oxidation on responses induced by agonists acting at non-NMDA receptors.

NMDA receptor = experiment: Whole-cell patch-clamp NMDA responses in cultured rat cortical neurons; format: cell-based
Procedure: The effects of reduction and oxidation on the NMDA response were further examined in cultured mammalian central neurons with the use of patch electrodes. Experiments were performed on neurons in primary cultures of CD rat neocortex derived from embryonic day 16 fetuses and plated onto glass coverslips coated with collagen and poly-L-lysine. The growth medium consisted of a v/v mixture of 80% DMEM (Sigma D5530), 10% F-12 (Sigma), 10% heat-inactivated, iron-supplemented serum (Hyclone), with 25 mM HEPES, 24 U/ml penicillin, and 24 μg/ml streptomycin, supplemented to 2 mM glutamine. Recordings were performed on 3- to 13-week-old cultures, and neurons studied ranged from 12 to 18 μm in diameter. The extracellular solution for the physiological experiments contained 137 mM NaCl, 1 mM NaHCO3, 0.34 mM NaHPO4, 5.36 mM KCl, 0.44 mM KH2PO4, 2.5 mM CaCl2, 5 mM HEPES-NaOH, 22.2 mM dextrose, 0.001% (v/v) phenol red, adjusted to pH 7.2 with 0.3 N NaOH (no added magnesium, except where noted). Tetrodotoxin (TTX) (1 μM) was routinely added to reduce synaptic activity. The intracellular (pipette) solution contained 120 mM CsCl, 20 mM TEA-Cl, 2 mM MgCl2, 1 mM CaCl2, 1.5-2.25 mM EGTA, and 10 mM HEPES-NAOH, adjusted to pH 7.2 with concentrated TEA-OH. Electrophysiological measurements were performed at 33° C.-35° C. with patch electrodes (4-8 MΩ), essentially as described in Lipton et al. J. Physiol 385:361, 1987. Lipton et al. 1987 includes the following disclosure of electrophysiological recordings by patch clamp from solitary neurons:
“. . . patch-clamp recordings were made . . . following the methods of Hamill et al. (1981) using an EPC-7 amplifier (List Electronic, Darmstadt, F.R.G.). Patch electrodes had resistances of 3-5 MΩ when filled with Na^+ or K^+ saline. Patch electrodes were used to record whole-cell currents under voltage clamp as well as single-channel currents from patches of membrane excised from the cell. The indifferent electrode was a Ag-AgCl wire connected to the culture dish via an agarose bridge. Holding and command potentials (VH and Vc, respectively (were generated by a digital-to-analog converter (Cheshire Data, Hamden, Conn., U.S.A.) interfaced with a PDP 11/23 or 11/73 computer (Digital Equipment Corp., Maynard, Mass., U.S.A.). Data collection was also controlled by the computer; data were sampled and digitized with a 12-bit, 125 kHz analog-to-digital converter (Data Translation, Marlboro, Mass., U.S.A., Model DT2782DMA) and viewed on a Hewlett-Packard digital display (Model 1345A). The sampling rate was set at 10 μs to 50 ms depending on the level of analysis. Using the amplifier test circuit, the digitized data were accurate to within 1%. The signals were low-pass filtered at a setting appropriate to the sampling frequency (Ithaco, Ithaca, N.Y., U.S.A., Model 4302 with a Bessel frequency cut-off characteristic of 48 dB/octave). Leakage currents and liquid junction potentials were corrected as described in Fenwick, Marty & Neher [J. Physiol. 331:577-597] (1982a). Using the EPC-7 circuit, analog compensation of the series resistance was applied. This ensured a relatively small error due to the voltage drop across the series resistance (less than or equal to that calculated by Marty & Neher, 1985 [J. Physiol. 367:117-141]). Data were stored on a 30 megabyte Winchester disk (Data Systems Design, San Jose, Calif., U.S.A., Model 880). […]

Structure (SMILES)	currents elicited by kainate, AMPA or quisqualate after reduction (non-NMDA receptors; 1 mM DTT)	voltage-clamped NMDA response, % of control (potentiation) (NMDA receptor; 10-100 μM NMDA + 1 μM glycine, 1-5 min treatment with 0.5-2.0 mM DTT, mean ± spread)	voltage-clamped NMDA response, % of control, range (NMDA receptor; 10-100 μM NMDA + 1 μM glycine, 1-5 min treatment with 0.5-2.0 mM DTT, range)	NMDA response on reapplication of DTT after oxidation (NMDA receptor; after DTNB oxidation)	responses elicited by kainate, AMPA or quisqualate after oxidation (non-NMDA receptors; 200 μM DTNB)	decrease of NMDA response (NMDA receptor; 1-3 min treatment with 0.1-1.0 mM DTNB, mean ± spread)	decrease of NMDA response, range (NMDA receptor; 1-3 min treatment with 0.1-1.0 mM DTNB, range)
O[C@@H](CS)[C@@H](O)CS [DTT, dithothreitol]	no substantial effect	250%±140%	220%-330%	always restored the NMDA response to greater than control levels			
O=C(O)c1cc(SSc2ccc([N+](=O)[O-])c(C(=O)O)c2)ccc1[N+](=O)[O-] [DTNB, 5′-5′-dithiobis-2-nitrobenzoic acid]					did not affect	22.9%±12.9%	0%-39.5%
